Measurements: patent US20250281465A1, “MOLECULES THAT ENHANCE EXTRACELLULAR VESICLE RELEASE” (priority 2022, published 2025)

How the values were obtained:
Format in all cases: cell-based, mouse
[1] = tested on: mBMDCs; test: RNA sequencing analysis of mBMDCs; details: 5 μM
Description: FIGS. 2A-2C. RNA sequencing analysis of mBMDC treated with compound #634, (A) mBMDCs were treated with compound #634 (5 μM) or Veh (0.1% DMSO) or in triplicate for 5 hours. RNA was isolated, and RNA-seq analysis was performed by UC San Diego IGM Genomic Center. Data were analyzed by UC San Diego Moore Cancer Center Biostatistics and Bioinformatics Shared Resources. […] (B) Kyoto Encyclopedia of Genes and Genomes (KEGG) pathway analysis. Normalized enrichment scores (NES) of the top 10 positively and negatively enriched genes sets (FDR≤0.05 and fold change >2).
mBMDCs were treated with compound 634 (5 μM) or Veh (0.1% DMSO) in triplicate for 5 hours. RNA was isolated, and RNA-seq analysis was performed. […] Data were analyzed by UC San Diego Moore Cancer Center Biostatistics and Bioinformatics Shared Resources.
RNA-seq and Data Analysis. mBMDCs (1.5×10^6 cells, 10^6 cells/mL×1.5 mL) were treated with Veh (0.1% DMSO), 634 (5 μM) for 5 hours, and then the total RNA was isolated using Quick-RNA™ Miniprep Kit (Zymo Research). Each group has triplicates. RNA-seq was performed by the sequencing core at the UC San Diego institute for Genomic Medicine Genomics Center. Briefly, paired-ended sequencing was performed on the Illumina NovaSeq 6000. Reads were aligned to the mouse reference genome (mm10) using STAR (ver. 2.5.1), and mRNA expression levels were calculated per gene using RSEM (ver. 1.3.0). Genes were filtered if more than 24 out of 27 of the samples (including compound 634, there were a total of 8 testing compounds and DMSO in triplicated samples) had counts <10. Raw counts were then quantile normalized and used as expression values in the subsequent analysis. Also, if mouse gene IDs corresponded with multiple human genes, the genes with highest variance in expression values were kept (Miller et al., 2011). A total of 11759 genes remained. Limma (liner models for microarray, using Rlimma package) trend tests were used for differential analysis based on log 2 expression values. The Benjamini-Hochberg procedure was applied to control the false discovery rate (FDR). […] RNA-seq data have been deposited in ArrayExpress, https://www.ebi.ac.uk/arrayexpress/(accession no. E-MTAB-12377) (Hayashi, 2022).

[2] = tested on: mBMDCs; test: Costimulatory molecule expression on mBMDCs (flow cytometry); details: 634 10 μM, ION 1 μM, MPLA 1 μg/mL overnight, vs Veh
Description: FIGS. 26A-26D. Flow cytometric analysis for costimulatory molecules on mBMDCs. For costimulatory molecules on mBMDCs, mBMDCs (10^6 cells/mL) were incubated with 634 (10 μM), ION (1 μM), and MPLA (1 μg/mL) for 20-24 hours. 0.5% DMSO was used as a vehicle. After removing the supernatant, cells were washed with the stain buffer and incubated with anti-mouse CD16/32 antibody for blocking FcR. Cells were stained with an antibody cocktail with anti-CD86 (A), anti-CD80 (B), anti-MHC class II (C), and anti-CD40 (D) antibodies for 30 minutes at 4° C. Cells were then washed and stained with DAPI (4′,6-diamino-2phenylindole) for 10 minutes at room temperature to exclude dead cells (DAPI^high) from the analysis. Data were acquired using MACSQuant Analyzer 10 (Miltenyi Biotec, Germany) and analyzed with FlowJo (version 10.8.1).
mBMDCs (10^5 cells/200 μL/well) were treated with a test compound (10 μM) or Veh (0.5% DMSO) overnight and then the costimulatory molecule expression on mBMDCs was evaluated using flow cytometry. The cells were stained with antibodies for CD11c, CD80, CD83, CD86, CD40, and MHC class II. Dead cells (DAPI high) were excluded from the analysis. Percent positive population of CD80, CD83, CD86, CD40, or MHC class II in the gated CD11c population were analyzed.
Costimulatory Molecule Expression Analysis. mBMDCs (10^6 cells/mL) were incubated with 10 μM compound, 1 μM lonomycin and 1 μg/mL MPLA for 20 to 24 hours. 0.5% DMSO was used as vehicle. Cells were incubated with anti-mouse CD16/32 antibody for blocking FcR and stained with anti-CD11c, anti-CD40, […], anti-CD83, […], or anti-MHC class II antibodies for 30 minutes at 4° C. Cells were stained with 4′,6-diamino-2-phenylindole (DAPI) for 10 minutes at RT. Data were acquired using MACSQuant Analyzer 10 (Miltenyi Biotec, Germany) and analyzed with FlowJo (version 10.8.1, Becton Dickinson, Ashland, OR)).

[3] = tested on: mBMDCs; test: Cell viability / cytotoxicity in mBMDCs (MTT); details: 10 μM
Description: FIGS. 30A-30B. […] After 48 hours incubation, cell viability was determined by MTT assay.
mBMDCs (10^5 cells/200 μL/well) were treated with 10 and 5 μM of a test compound in 96-well plates overnight. After 18 hours of drug treatment, MTT (0.5 mg/ml) was added to each well. The cells were lysed after 6-8 hours incubation, and absorbance values at 570 and 650 nm were measured. PrestoBlue reagent (#A13261, Thermo Fisher Scientific) was used for cell viability assay in CD63 HTS as described earlier.
Cell viability assay. mBMDCs (2×10^6 cells/200 μL/well in RPMI1640 supplemented with dialyzed 10% FBS, or 1.5×10^6 cells/200 μL/well in RPMI1640 supplemented with 10% exosome depleted FBS) were treated with 10 μM of each test compound in 96-well plates. After 46-48 hours of compound treatment, MTT (0.5 mg/mL) was added to each well. The cells were lysed after overnight incubation, and absorbance values at 570 and 650 nm were measured.

[4] = 5 hours, FDR≤0.05 and fold change >2

CCOC(=O)c1c(NS(=O)(=O)c2cccc3nsnc23)sc(C)c1C [compound 634, Ethyl 2-(benzo[c][1,2,5]thiadiazole-4-sulfonamido)-4,5-dimethylthiophene-3-carboxylate]
FC Cdhr1 ([1]; 5 hours vs Veh, down-regulated): 0.40 | FC Hrh1 ([1]; 5 hours vs Veh, down-regulated): 0.46 | FC Cdh1 ([1]; 5 hours vs Veh, up-regulated): 2.61 | FC Htr7 ([1]; 5 hours vs Veh, up-regulated): 2.38 | FC Oit3 ([1]; 5 hours vs Veh, up-regulated): 2.02 | FC Ppm1e ([1]; 5 hours vs Veh, up-regulated): 2.77 | FC Sla2 ([1]; 5 hours vs Veh, up-regulated): 2.04 | down-regulated genes [1, 4]: 17 genes | genes with modulated expression compared to Veh [1, 4]: 103 genes | up-regulated genes [1, 4]: 86 genes | CD80 expression on mBMDCs [2]: increased CD86 and CD80 expression on mBMDCs | CD86 expression on mBMDCs [2]: increased CD86 and CD80 expression on mBMDCs | toxicity to mBMDC [3]: non-toxic
